In ChEMBL document CHEMBL3885861, “Open TG-GATES”:

Organism: Rattus norvegicus
Assay: Open TG-GATES - Regimen: Single
Format: toxicity, organism-based, Sprague-Dawley
Set-up: regimen Single, gender Male, age 6 weeks
Settings: in vivo, po, 1 mg/kg, route gavage, dose level Low; for Bas / Eos / Fbg / Hb / Ht / Lym / MCHC / MCV / Mono / Neu / Plat / RBC / Ret / WBC: tissue Blood; for KIDNEY_TOTAL: tissue Kidney; for LIVER: tissue Liver; for ALT / AST / BUN / CRE / Ca / Cl / DBIL / GLC / IP / K / LDH / Na / PL / RALB / TBIL / TC / TP / gamma-GTP: tissue Plasma

C[C@@H]1C[C@H]2[C@@H]3CCC4=CC(=O)C=C[C@]4(C)[C@@]3(F)[C@@H](O)C[C@]2(C)[C@@]1(O)C(=O)CO [DEXAMETHASONE]
Bas (3 h): 0%
Eos (3 h): 0.4%
Fbg (3 h): 254 mg/dL
Hb (3 h): 13.2 g/dL
Ht (3 h): 40.3%
Lym (3 h): 67%
MCHC (3 h): 32.7%
MCV (3 h): 64 fL
Mono (3 h): 3.4%
Neu (3 h): 29.2%
Plat (3 h): 115.4 x10_4/uL
RBC (3 h): 630 x10_4/ul
Ret (3 h): 8.3%
WBC (3 h): 45.1 x10_2/uL
KIDNEY_TOTAL (3 h): 0.7 g
LIVER (3 h): 11.2 g
ALT (3 h): 43.2 IU/L
AST (3 h): 72 IU/L
BUN (3 h): 17 mg/dL
CRE (3 h): 0.4 mg/dL
Ca (3 h): 11.2 mg/dL
Cl (3 h): 102.2 meq/L
DBIL (3 h): 0.01 mg/dL
GLC (3 h): 192.6 mg/dL
IP (3 h): 12 mg/dL
K (3 h): 4 meq/L
LDH (3 h): 100.6 IU/L
Na (3 h): 142.2 meq/L
PL (3 h): 172 mg/dL
RALB (3 h): 4.3 g/dL
TBIL (3 h): 0.042 mg/dL
TC (3 h): 102 mg/dL
TP (3 h): 6.2 g/dL
gamma-GTP (3 h): 1 IU/L
TERMINAL_BW (6 h): 204.4 g
Bas (6 h): 0%
Eos (6 h): 0.2%
Fbg (6 h): 250.2 mg/dL
Hb (6 h): 13.1 g/dL
Ht (6 h): 40.4%
Lym (6 h): 59%
MCHC (6 h): 32.6%
MCV (6 h): 64.5 fL
Mono (6 h): 3.2%
Neu (6 h): 37.2%
Plat (6 h): 113.5 x10_4/uL
RBC (6 h): 627 x10_4/ul
Ret (6 h): 6.5%
WBC (6 h): 28.2 x10_2/uL
KIDNEY_TOTAL (6 h): 0.5 g
LIVER (6 h): 10.8 g
ALT (6 h): 39 IU/L
AST (6 h): 73.8 IU/L
BUN (6 h): 17.4 mg/dL
CRE (6 h): 0.4 mg/dL
Ca (6 h): 10.9 mg/dL
Cl (6 h): 102.8 meq/L
DBIL (6 h): 0.008 mg/dL
GLC (6 h): 215.8 mg/dL
IP (6 h): 8.2 mg/dL
K (6 h): 4.3 meq/L
LDH (6 h): 91.4 IU/L
Na (6 h): 138.6 meq/L
PL (6 h): 179.4 mg/dL
RALB (6 h): 4.4 g/dL
TBIL (6 h): 0.038 mg/dL
TC (6 h): 124.4 mg/dL
TP (6 h): 6.3 g/dL
gamma-GTP (6 h): 0 IU/L
TERMINAL_BW (9 h): 198.1 g
Bas (9 h): 0%
Eos (9 h): 0.2%
Fbg (9 h): 263.4 mg/dL
Hb (9 h): 13.4 g/dL
Ht (9 h): 40.9%
Lym (9 h): 55.8%
MCHC (9 h): 32.7%
MCV (9 h): 64.7 fL
Mono (9 h): 1.4%
Neu (9 h): 42.4%
Plat (9 h): 127.4 x10_4/uL
RBC (9 h): 633 x10_4/ul
Ret (9 h): 7.3%
WBC (9 h): 28.3 x10_2/uL
KIDNEY_TOTAL (9 h): 0.5 g
LIVER (9 h): 10.7 g
ALT (9 h): 38.8 IU/L
AST (9 h): 76.6 IU/L
BUN (9 h): 19.2 mg/dL
CRE (9 h): 0.4 mg/dL
Ca (9 h): 10.6 mg/dL
Cl (9 h): 102 meq/L
DBIL (9 h): 0.006 mg/dL
GLC (9 h): 217 mg/dL
IP (9 h): 7.8 mg/dL
K (9 h): 4.4 meq/L
LDH (9 h): 96.2 IU/L
Na (9 h): 138 meq/L
PL (9 h): 181.6 mg/dL
RALB (9 h): 4.7 g/dL
TBIL (9 h): 0.038 mg/dL
TC (9 h): 126 mg/dL
TP (9 h): 6.8 g/dL
gamma-GTP (9 h): 0.8 IU/L
TERMINAL_BW (24 h): 210.9 g
Bas (24 h): 0%
Eos (24 h): 0.8%
Fbg (24 h): 239.6 mg/dL
Hb (24 h): 13.8 g/dL
Ht (24 h): 41.6%
Lym (24 h): 61.4%
MCHC (24 h): 33.1%
MCV (24 h): 64.9 fL
Mono (24 h): 4.8%
Neu (24 h): 33%
Plat (24 h): 122.7 x10_4/uL
RBC (24 h): 642.2 x10_4/ul
Ret (24 h): 5.8%
WBC (24 h): 73.8 x10_2/uL
KIDNEY_TOTAL (24 h): 0.5 g
LIVER (24 h): 12 g
ALT (24 h): 35.4 IU/L
AST (24 h): 79.8 IU/L
BUN (24 h): 16.4 mg/dL
CRE (24 h): 0.4 mg/dL
Ca (24 h): 10.9 mg/dL
Cl (24 h): 99.8 meq/L
DBIL (24 h): 0.016 mg/dL
GLC (24 h): 191.8 mg/dL
IP (24 h): 8 mg/dL
K (24 h): 4.9 meq/L
LDH (24 h): 110.2 IU/L
Na (24 h): 139.2 meq/L
PL (24 h): 219.2 mg/dL
RALB (24 h): 4.6 g/dL
TBIL (24 h): 0.046 mg/dL
TC (24 h): 104.2 mg/dL
TP (24 h): 6.4 g/dL
gamma-GTP (24 h): 0 IU/L
